Ends that are not written are not given here.
Assays:
Neutravidin [1] = molecular target: T1, Neutravidin (Gallus gallus, UniProt P02701); experiment: Primary phagemid binding ELISA, Neutravidin control wells (TCR-1 panning); conditions: ELISA signal; Neutravidin alone
From the text: (§3) The next day the deep well plates were centrifuged to separate the soluble phagemid from the E. coli cells. […] After binding at 4 degrees the plates were washed, and specifically bound phage were detected by anti-m13 HRP conjugated antibodies using standard TMB-based chromogenic ELISA procedures. Daughter plates or individual wells were subjected to standard DNA sequencing for clonal peptide sequence identification.

TCR-1 [2] = experiment: Secondary pMHC phagemid competition ELISA on TCR-1; assay type: binding; conditions: for Secondary pMHC phagemid competition ELISA binding with 200 nM pMHC competitor / Secondary pMHC phagemid competition ELISA IC-3 binding no pMHC competitor: ELISA signal; for Secondary pMHC phagemid competition ELISA binding with 200 nM pMHC competitor: 200 nM Human MAGE-A3 pMHC competitor; for % binding with pMHC competition: TCR-1, 200 nM pMHC competitor relative to no competitor
Experimental: Human MAGE-A3 pMHC was added to wells to block the active binding site. After a brief incubation period phagemid supernatants were added to both sets of wells. Following further incubation at 4 degrees the plates were washed and specifically bound phage were detected by anti-m13 HRP conjugated antibodies using standard TMB-based chromogenic ELISA procedures. Phagemid clones binding within the antigenic binding pocket would be blocked and be identified by a decreased ELISA signal, compared to a well lacking previous pMHC blockade.

TCR-1 [3] = experiment: Primary phagemid binding ELISA, TCR-1 wells; conditions: ELISA signal; phagemid supernatant on Neutravidin captured biotin-conjugated TCR-1
From the text: as §3

TCR-8 [4] = experiment: Primary phagemid binding ELISA, TCR-8 wells; conditions: ELISA signal; phagemid supernatant on Neutravidin captured biotin-conjugated TCR-8
Neutravidin [5] = molecular target: T1, Neutravidin; experiment: Primary phagemid binding ELISA, Neutravidin control wells (TCR-8 panning); conditions: ELISA signal; Neutravidin alone
Experimental: The next day the deep well plates were centrifuged to separate the soluble phagemid from the E. coli cells. The phagemid containing supernatants were then combined with PBS-Tween 20 (0.05%)+BSA (1%) blocking buffer and incubated in ELISA wells containing Neutravidin captured biotin-conjugated TCR-8 (Table 1) or Neutravidin alone. After binding at 4 degrees the plates were washed and specifically bound phage were detected by anti-m13 HRP conjugated antibodies using standard TMB-based chromogenic ELISA procedures. Daughter plates or individual wells were subjected to standard DNA sequencing for clonal peptide sequence identification.

TCR-8 [6] = experiment: Secondary pMHC phagemid competition ELISA on TCR-8; assay type: binding
Experimental: TCR-8 immobilized and blocked 96-well ELISA plates similar to above were prepared. Tetrameric human MAGE-A3 pMHC was first added to wells to block the active binding site. After a brief incubation period (30-60 minutes) phagemid supernatants were added to both sets of wells. Following further incubation at 4 degrees the plates were washed and specifically bound phage were detected by anti-m13 HRP conjugated antibodies using standard TMB-based chromogenic ELISA procedures.

[7] = molecular target: TCR-1 binding to MAGE-A3 pMHC; experiment: Peptide inhibition of TCR-1 kinetic binding to MAGE-A3 pMHC (BLI); conditions: 50 nM TCR-1; result in words
Experimental: Zero concentration of inhibitory peptide (100% binding) or zero concentration of TCR (0% binding) was used as a control. Biotinylated pMHC was captured on streptavidin biosensors. Sensors were quenched using excess biocytin and then baselined in buffer. Inhibitory peptide and TCR mixtures were associated onto the pMHC loaded biosensor. Association signal was monitored in real-time. Biosensors were then transferred to buffer and the dissociation signal was measured in real-time.
Zero concentration of inhibitory peptide (100% binding) or zero concentration of TCR (0% binding) was used as a control. Biotinylated pMHC was captured on streptavidin biosensors. Sensors were quenched using excess biocytin and then baselined in buffer. […] Association signal was monitored in real-time. Biosensors were then transferred to buffer and the dissociation signal was measured in real-time. Data was baseline corrected. The maximal association signal was normalized from 100% (0 uM inhibitory peptide control) to 0% (0 uM TCR control) and plotted versus log-scale inhibitory peptide concentration. […]
Inhibitory peptide titrated in a 2-fold dilution series starting from 100 uM was first incubated with a constant concentration of 50 nM TCR. […] Association signal was monitored in real-time. Biosensors were then transferred to buffer and the dissociation signal was measured in real-time. […]

[8] = tested on: TCR-1, TCR-8, TCR-9, TCR-10; experiment: BLI binding specificity of Peptide-5 against TCR-1 and closely related TCRs; conditions: TCRs from 50 nM or at 100 uM on saturating Peptide-5
Experimental: The other TCRS chosen are closely related to the target TCR-1. BLI based kinetic binding of TCR-land closely related TCRS, TCR-8, TCR-9, and TCR-10 to inhibitory peptides was measured using a ForteBio Octet RED96 instrument. Biotinylated peptides were first captured on streptavidin biosensors. Sensors were quenched using excess biocytin and then baselined in buffer. TCRs were titrated in a 2-fold dilution series starting from 50 nM and were associated onto the inhibitory peptide loaded biosensor. Association signal was monitored in real-time. Biosensors were then transferred to buffer and the dissociation of TCR was measured in real-time. Response data was baseline corrected and fit to a 1:1 binding model used to calculate association and dissociation rates.
BLI based kinetic binding of TCR-land closely related TCRS, TCR-8, TCR-9, and TCR-10 to inhibitory peptides was measured using a ForteBio Octet RED96 instrument. Biotinylated peptides were first captured on streptavidin biosensors until signal saturation. Sensors were quenched using excess biocytin and then baselined in buffer. TCRs were associated 100 uM onto the inhibitory peptide loaded biosensor. Association signal was monitored in real-time. Biosensors were then transferred to buffer and the dissociation of TCR was measured in real-time. […]

TCR-1 [9] = experiment: ELISA-based binding of TCR-1 to synthetic peptides; conditions: result in words; numbers are in Table 3, not printed here
Experimental: (§1) ELISA-based binding: High binding plates were first coated with neutravidin. Neutravidin coated plates were blocked using bovine serum albumin in buffer and washed. Biotinylated peptide or pMHC at a single concentration of 100 nM was captured on neutravidin coated plates, quenched using excess biocytin, and washed. […] TCR was then titrated onto the peptide or pMHC captured plates for 1 hour and washed. […] Plates were then developed using tetramethylbenzidine (TMB) for 5-10 min and stopped using acid.
as §1, with “High” for “ELISA-based binding: High”, “peptide” for “peptide or pMHC”, “acid. Absorbance at 450 nm was measured for each plate and plotted versus log-scale TCR concentration. […]” for “acid.”
High binding plates were first coated with neutravidin. Neutravidin coated plates were blocked using bovine serum albumin in buffer and washed. […] Absorbance at 450 nm was measured for each plate and plotted versus log-scale TCR concentration.

[10] = molecular target: TCR-1 binding to MAGE-A3 pMHC; experiment: Peptide inhibition of TCR-1 binding to MAGE-A3 pMHC in competitive binding ELISA; conditions: 1 nM TCR-1, result in words
Experimental: (§2) Peptide inhibition in competitive binding ELISAs: High binding plates were first coated with neutravidin. Neutravidin coated plates were blocked using bovine serum albumin in buffer and washed. Biotinylated pMHC at a single concentration of 100 nM was captured on neutravidin coated plates, quenched using excess biocytin, and washed. […] Inhibitory peptide and TCR mixtures were then added to the pMHC captured plates for 30 min and washed. […] Plates were then developed using tetramethylbenzidine (TMB) for 5-10 min and stopped using acid.
as §2, with “High” for “Peptide inhibition in competitive binding ELISAs: High”, “acid. Absorbance at 450 nm was measured for each plate and plotted versus log-scale inhibitory peptide concentration.” for “acid.”
High binding plates were first coated with neutravidin. Neutravidin coated plates were blocked using bovine serum albumin in buffer and washed. […] Absorbance at 450 nm was measured for each plate and plotted versus log-scale inhibitory peptide concentration.

Neutravidin [11] = molecular target: T1, Neutravidin; experiment: primary phagemid binding ELISA, Neutravidin alone

T1 sequence (P02701 25-152): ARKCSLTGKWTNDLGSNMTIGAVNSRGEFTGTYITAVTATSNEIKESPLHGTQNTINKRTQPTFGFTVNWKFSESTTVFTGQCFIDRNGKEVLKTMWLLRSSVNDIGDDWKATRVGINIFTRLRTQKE
TCR-8, sequence (as listed by the source): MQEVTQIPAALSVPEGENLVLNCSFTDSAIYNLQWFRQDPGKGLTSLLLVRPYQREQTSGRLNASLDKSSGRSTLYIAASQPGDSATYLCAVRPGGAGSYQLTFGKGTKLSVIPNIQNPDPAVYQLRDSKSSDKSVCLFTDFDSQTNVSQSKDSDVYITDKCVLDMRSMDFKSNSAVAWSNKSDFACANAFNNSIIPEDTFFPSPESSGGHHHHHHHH
TCR-8, sequence (as listed by the source): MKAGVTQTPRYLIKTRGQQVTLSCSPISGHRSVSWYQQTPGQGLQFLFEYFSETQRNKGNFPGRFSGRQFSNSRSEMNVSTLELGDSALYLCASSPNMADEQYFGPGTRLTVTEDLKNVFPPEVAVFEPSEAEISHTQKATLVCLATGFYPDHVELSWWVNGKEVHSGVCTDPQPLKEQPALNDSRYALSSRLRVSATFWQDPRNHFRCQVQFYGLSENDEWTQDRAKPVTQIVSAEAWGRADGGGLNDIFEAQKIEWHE
TCR-1, sequence (as listed by the source): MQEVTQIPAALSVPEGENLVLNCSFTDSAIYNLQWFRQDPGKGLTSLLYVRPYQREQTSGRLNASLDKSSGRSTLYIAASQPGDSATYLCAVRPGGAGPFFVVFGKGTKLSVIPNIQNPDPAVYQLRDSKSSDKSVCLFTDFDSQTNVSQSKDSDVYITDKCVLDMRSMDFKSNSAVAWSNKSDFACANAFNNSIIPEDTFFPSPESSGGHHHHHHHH
TCR-1, sequence (as listed by the source): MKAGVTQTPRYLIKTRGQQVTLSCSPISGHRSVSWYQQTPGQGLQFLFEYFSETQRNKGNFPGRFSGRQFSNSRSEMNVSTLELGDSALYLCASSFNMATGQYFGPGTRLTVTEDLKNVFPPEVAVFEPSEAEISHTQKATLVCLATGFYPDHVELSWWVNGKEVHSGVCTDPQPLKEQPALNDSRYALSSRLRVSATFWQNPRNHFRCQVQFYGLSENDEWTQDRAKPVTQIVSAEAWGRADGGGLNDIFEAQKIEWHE

## GGDVRCFMRMMECVLL [J289_D10]
Neutravidin [1]
  Primary Phagemid binding ELISA Neutravidin control wells: 0.120
TCR-1 [2]
  Secondary pMHC phagemid competition ELISA binding with 200 nM pMHC competitor: 0.132
  Secondary pMHC phagemid competition ELISA IC-3 binding no pMHC competitor: 1.881
  % binding with pMHC competition: 7%

## GGLADYCEHPMCYWYS [J250_G02]
TCR-1 [3]
  Primary Phagemid binding ELISA TCR-1 wells: 3.122
Neutravidin [1]
  Primary Phagemid binding ELISA Neutravidin control wells: 0.152

## GGLADYCEHPMCYWYS [J272_B10]
Neutravidin [1]
  Primary Phagemid binding ELISA Neutravidin control wells: 0.068
TCR-1 [2]
  Secondary pMHC phagemid competition ELISA binding with 200 nM pMHC competitor: 0.075
  Secondary pMHC phagemid competition ELISA IC-3 binding no pMHC competitor: 1.683
  % binding with pMHC competition: 4%

## GGVICENWQGDRVCWF [J308_A03] (phagemid-displayed)
TCR-8 [4]
  Primary phagemid binding ELISA TCR-8 wells: 3.157
Neutravidin [5]
  Primary phagemid binding ELISA Netravidin Control wells: 0.132

## GGVICENWQGDRVCWF [J308_A09] (phagemid-displayed)
TCR-8 [4]
  Primary phagemid binding ELISA TCR-8 wells: 3.065
Neutravidin [5]
  Primary phagemid binding ELISA Netravidin Control wells: 0.236
TCR-8 [6]; ELISA signal, 100 nM tetrameric human MAGE-A3 pMHC
  Secondary pMHC phagemid competition ELISA binding with 100 nM pMHC tetramer competitor: 0.570
TCR-8 [6]; ELISA signal, no pMHC competitor
  Secondary pMHC phagemid competition ELISA TCR-8 binding no pMHC competitor: 1.877
TCR-8 [6]; TCR-8, 100 nM pMHC tetramer competitor relative to no competitor
  % binding with pMHC competition: 30%

## GGVSCKDVYDEAFCWT [Peptide-5, synthesized with a biotinylated linker and C-terminal amidation]
[7]
  IC50, inhibition of TCR-1 binding to MAGE-A3 pMHC: lowest
[8]
  binding specificity for TCR-1 against closely related TCRs: selective for TCR-1

## Peptide-24: Peptide-5 alanine scan peptide, substitution of lysine at the 6th amino acid position (GGVSCADVYDEAFCWT-NH2; not fully specified; cysteine pairing not given here; also: biotinylated linker, place not given here)
TCR-1 [9]
  binding EC50 (TCR-1 binding to peptide by ELISA): mild improvements
[10]
  competitive binding IC50: mild improvement

## GGDVRCFMRMMECVLL [J289_D10]
Neutravidin [11]
  ELISA signal (Neutravidin control wells): 0.12
